Experimental data as given in ChEMBL document CHEMBL1201862, “PubChem BioAssay data set” (2004).
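Exposure lasted 48 hours, with cells grown in 96-well plates and compounds tested at five concentrations. At the GI50, growth is halved.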 Activity calls are given as the source filed them. Cut-off read from the data, not from the text of the source: active = GI50 up to about 1.1 µM and inactive = higher.

How the values were obtained:
Assay in all cases: NCI tumour cell line growth inhibition, 48 h
M19-MEL = test system: M19-MEL
DMS-114 = test system: DMS-114
KM-20L2 = test system: KM-20L2
LXFL 529 = test system: LXFL 529
HOP-18 = test system: HOP-18

Measured: GI50

CCCc1[nH]c(SCCCCCCCCSc2nc(-c3ccc(F)cc3)c(CCC)[nH]2)nc1-c1ccc(F)cc1
inactive: M19-MEL 29.9 µM | DMS-114 3.94 µM | KM-20L2 16.1 µM | LXFL 529 7.46 µM | HOP-18 6.41 µM
